Laboratory results: patent US5834463A, “Condensed heterocyclic compounds, their production and use” (Takeda Chemical Industries, Ltd., priority 1994, dated 1998)

Assays:
[1] = test system: pentobarbital-induced sleep in mice; assay: Effect on pentobarbital-induced sleep in mice; format: in vivo, ICR male mice; conditions: 30 minutes before sodium pentobarbital 55 mg/kg i.p.
Description: (G) Effect on pentobarbital-induced sleep in mice
ICR male mice of 5-6 week old were orally administered with test samples dissolved or suspended in a physiological saline solution or 5% gum solution dosage of 100 mg/kg (2-3 animals in each group), and behavioral observation was conducted at 15, 30, 60 and 120 minutes after the administration.
As the next stage, ICR male mice of 4-5 week old were orally administered with test samples dissolved or suspended in a physiological saline solution or 5% gum arabic solution at a dosage which was one rank lower than the dosage determined as above (8 animals in each group). Thirty minutes after the administration, test animals were administered intraperitoneally with sodium pentobarbital at a dosage of 55 mg/kg. The duration of sleep was measured as the time from the onset of righting reflex until the righting reflex was regained.

GnRH receptor = conditions: relative to GnRH obtained from natural sources; cited from earlier work
[2] = test system: ethanol-induced sleep in mice; assay: Effects on ethanol-induced sleep in mice; format: in vivo, ICR male mice; conditions: 30 mg/kg orally, 30 minutes before 25% ethanol i.p.; 8 animals
Description: (F) Effects on ethanol-induced sleep in mice
ICR male mice of 4-5 week old were orally administered with test compounds suspended in a physiological saline solution or 5% gum arabic solution at a dosage of 30 mg/kg (8 animals in each group). Thirty minutes later, test animals were intrapritoneally injected with 25% ethanol (0.2 mL/10 g). The duration of sleep was measured as the time from the onset of righting reflex until the righting reflex was regained.

human GnRH receptor = molecular target: T1, human GnRH receptor (Homo sapiens, UniProt P30968); assay: Test for inhibition of ^125 I-leuprorelin binding to human GnRH receptor; conditions: membrane fraction of CHO cells expressing human GnRH receptors, 25° C., 60 minutes, read-out: Binding Inhibitory Activity (IC50, μM) for human GnRH receptor
T1 construct: expressed in transfected cells; host or cells: CHO (Chinese Hamster Ovary) cells, membrane fraction
T1 sequence (P30968 1-328): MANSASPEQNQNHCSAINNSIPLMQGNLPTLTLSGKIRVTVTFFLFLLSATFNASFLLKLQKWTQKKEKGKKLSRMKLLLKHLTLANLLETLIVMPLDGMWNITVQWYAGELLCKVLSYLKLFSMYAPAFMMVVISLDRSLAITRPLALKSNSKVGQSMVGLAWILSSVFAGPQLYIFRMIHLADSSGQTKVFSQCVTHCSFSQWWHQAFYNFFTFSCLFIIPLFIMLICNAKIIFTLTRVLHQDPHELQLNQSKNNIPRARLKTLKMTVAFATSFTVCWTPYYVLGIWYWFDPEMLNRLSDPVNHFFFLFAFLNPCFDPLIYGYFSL
Description: (A) Preparation of ^125 I-leuprorelin
Ten μl of a 3×10^-4 M aqueous solution of leuprorelin and 10μl of 0.01 mg/ml lactoperoxidase in 0.1M Hepes buffer (pH7.4) were put in a tube, to which was added 10 μl of an Na^125 I solution (37 MBq). The mixture was stirred, to which was added 10 μl of 0.001% H2 O2, followed by allowing the reaction to proceed for 20 minutes at room temperature. To the reaction mixture was added 700 μl of a 0.05% TFA solution to stop the reaction. The product of was purified by means of a reverse-phase HPLC. Conditions of HPLC were as follows:
(D) Preparation of membrane fraction of CHO (Chinese Hamster Ovary) cells containing human GnRH receptors
CHO cells (10^9) expressing human GnRH receptors were suspended in a phosphate-buffered saline supplemented with 5 mM EDTA. The suspension was subjected to centrifugal separation for 5 minutes at 100×g. To the pellet of cells was added 10 ml of a homogenate buffer for cells (10 mM NaHCO3, 5 mM EDTA, pH 7.5), which was homogenated by using a Polytron homogenizer. Centrifugal separation was conducted for 15 minutes at 400×g. The supernatant was taken into an ultracentrifugal tube, which was subjected to centrifuge for one hour at 100,000×g to give precipitate of the membrane fraction. The precipitate was suspended in 2 ml of the assay buffer, which was centrifuged for one hour at 100,000×g. The membrane fraction recovered as precipitate was again suspended in 20 ml of the assay buffer, which was distributed to vials and stored at -80° C. until used.
(E) Determination of inhibitory rate of ^125 I-leuprorelin binding
In the cases of using rat and human pituitary membrane fractions prepared in (B) and (D), they were respectively diluted with the assay buffer to 200 μg/ml and 188 μl each was distributed to tubes. In the case of using bovine pituitary membrane fraction prepared in (C), it was diluted with the assay buffer to 750 μg/ml and 188 μl each was distributed into tubes. In the case where the membrane fraction of anterior lobes of rat pituitary gland was used, 2 μl of a 0.1 mM compound dissolved in 60% DMSO (dimethylsulfoxide) and 10 μl of 38 nM ^125 I-leuprorelin were added thereto simultaneously. In the case where the membrane fraction of anterior lobes of bovine pituitary gland and the membrane fraction derived from the CHO cells expressing human GnRH receptors were used, 2 μl of a 2 mM compound dissolved in 60% DMSO and 10 μl of 38 nM ^125 I-leuproprelin were added simultaneously. For determining the maximum binding amount, a solution for reaction supplemented with 2 μl of 60% DMSO and 10 μl of 38 nM ^125 I-leuprorelin was prepared. And, for determining the amount of non-specific binding, a solution for reaction supplemented with 2 μl of 100 μM leuprorelin dissolved in 60% DMSO and 10 μl of 38 nM ^125 I-leuprorelin were also prepared simultaneously.
In the cases where membrane fractions of anterior lobes of rat and bovine pituitary were used, reaction was allowed to proceed at 4° C. for 90 minutes, while in the case where the membrane fraction derived from the CHO cells expressing human GnRH receptor was used, reaction was allowed to proceed at 25° C. for 60 minutes. The reaction mixtures were respectively subjected to filtration under sucking with Whatman glass filter (GF-F) processed with polyethyleneimine. After completing the filtration, radioactivity of the ^125 I-leuprorelin remaining on the filter paper was measured with a γ-counter.
By calculation of (TB-SB)/(TB-NSB)×100 (SB: radioactivity obtained when a compound was added, TB: radioactivity for the maximum binding, NSB: radioactivity for the non-specific binding), the binding inhibitory rate of each test compound was determined. Besides, the inhibitory rates were determined by changing the concentrations of test compounds, and the concentration of a test compound inhibiting the specific binding by 50% (IC50 value) was calculated by way of Hill plot.

[3] = cited from earlier work

In the case of O=C1C2CCCC2=Nc2ccccc2N1Cc1ccncc1 (stereo not drawn) [compound 9], the “Percentage (%) of sleeping time relative to control” value ([1]; 10 mg/kg orally) is reported as 176%.
In the case of O=C1C2CCCC2=Nc2ccccc2N1Cc1ccccc1F (stereo not drawn) [compound 5], the “Percentage (%) of sleeping time relative to control” value ([1]; 20 mg/kg orally) is reported as 140%.
In the case of CCNC(=O)[C@@H]1CCCN1C(=O)[C@H](CCCNC(=N)N)NC(=O)[C@H](CC(C)C)NC(=O)[C@@H](CC(C)C)NC(=O)[C@H](Cc1ccc(O)cc1)NC(=O)[C@H](CO)NC(=O)[C@H](Cc1c[nH]c2ccccc12)NC(=O)[C@H](Cc1c[nH]cn1)NC(=O)[C@@H]1CCC(=O)N1 [leuprorelin], the “affinity to GnRH receptor” value (GnRH receptor) is given as “higher affinity to GnRH receptor than GnRH obtained from natural sources”.
For CC(=O)N1c2ccccc2N(Cc2ccccc2)C(=O)[C@H]2CCC[C@H]21 (relative stereo) [compound 64], the “Percentage (%) of sleeping time relative to control” value [2] was 41%.
For O=C1[C@H]2CCC[C@H]2Nc2ccccc2N1Cc1ccc(Cl)cc1Cl (relative stereo) [compound 37], the “Percentage (%) of sleeping time relative to control” value [2] was 145% and the “Percentage (%) of sleeping time relative to control” value ([1]; 50 mg/kg orally) was 128%.
For Nc1ccc(CN2C(=O)C3CCCC3=Nc3ccccc32)cc1 (stereo not drawn) [compound 17], the “Percentage (%) of sleeping time relative to control” value [2] was 33%.
In the case of O=C1N(Cc2ccccc2)c2ccccc2NC2CCCC12Cc1ccccc1 (stereo not drawn) [compound 29], the “Percentage (%) of sleeping time relative to control” value [2] is reported as 50%.
In the case of Nc1cccc2c1C(=O)N(CC(=O)N1c3ccccc3N(Cc3ccccc3)C(=O)[C@H]3CCC[C@H]31)C2=O (relative stereo) [compound 106], the IC50 (human GnRH receptor) is reported as 5 µM.
For O=C1C2CCCC2=Nc2ccccc2N1Cc1ccc(Cl)cc1 (stereo not drawn) [compound 4], the “Percentage (%) of sleeping time relative to control” value ([1]; 50 mg/kg orally) was 140%.
Work on O=C1c2ccccc2C(=O)N1CC(=O)N1c2ccccc2N(CCc2ccccc2)C(=O)[C@H]2CCC[C@H]21 (relative stereo) [compound 217] yielded an IC50 (human GnRH receptor) of 0.7 µM.
Molecule O=C1c2cccc([N+](=O)[O-])c2C(=O)N1CC(=O)N1c2ccccc2N(Cc2ccccc2)C(=O)[C@H]2CCC[C@H]21 (relative stereo) [compound 72] has an IC50 (human GnRH receptor) of 6 µM.
In the case of O=C1c2ccncc2C(=O)N1CC(=O)N1c2ccccc2N(Cc2ccccc2)C(=O)[C@H]2CCC[C@H]21 (relative stereo) [compound 128], the IC50 (human GnRH receptor) is reported as 15 µM.
With CN1c2ccccc2N(Cc2ccccc2)C[C@H]2CCC[C@H]21 (relative stereo) [compound 45] the “Percentage (%) of sleeping time relative to control” value ([1]; 20 mg/kg orally) was 124%.
For CCNC(=O)[C@@H]1CCCN1C(=O)[C@H](CCCNC(=N)N)NC(=O)[C@H](CC(C)C)NC(=O)[C@@H](CC(C)C)NC(=O)[C@H](Cc1ccc(O)cc1)NC(=O)[C@H](CO)NC(=O)[C@H](Cc1c[nH]c2ccccc12)NC(=O)[C@H](Cc1c[nH]cn1)NC(=O)[C@@H]1CCC(=O)N1 [Leuprorelin acetate], the “anti-tumor activity against hormone-dependent cancers” value ([3]; for example, prostatic cancer) is given as “shows anti-tumor activity” and the productivity of testosterone ([3]; repeated administration) is given as “reduce the productivity of testosterone to the level of castration”.
In the case of O=C1c2ccc(Cl)cc2C(=O)N1CC(=O)N1c2ccccc2N(Cc2ccccc2)C(=O)[C@H]2CCC[C@H]21 (relative stereo) [compound 69], the IC50 (human GnRH receptor) is reported as 2 µM.
With O=C1c2ccccc2C(=O)N1CC(=O)N1c2ccccc2N(Cc2ccc3ccccc3c2)C(=O)[C@H]2CCC[C@H]21 (relative stereo) [compound 114] the IC50 (human GnRH receptor) was 0.6 µM.
Molecule O=C1c2ccccc2C(=O)N1CC(=O)N1c2ccccc2N(Cc2ccc(-c3ccccc3)cc2)C(=O)[C@H]2CCC[C@H]21 (relative stereo) [compound 182] has an IC50 (human GnRH receptor) of 2 µM.
O=C1c2cccc3cccc(c23)C(=O)N1CC(=O)N1c2ccccc2N(Cc2ccccc2)C(=O)[C@H]2CCC[C@H]21 (relative stereo) [compound 75] gave an IC50 (human GnRH receptor) of 3 µM.
In the case of COC(=O)c1ccc2c(c1)C(=O)N(CC(=O)N1c3ccccc3N(Cc3ccccc3)C(=O)[C@H]3CCC[C@H]31)C2=O (relative stereo) [compound 108], the IC50 (human GnRH receptor) is reported as 8 µM.
In the case of CN1c2ccccc2N(Cc2ccccc2)C(=O)[C@H]2CCC[C@H]21 (relative stereo) [compound 63], the “Percentage (%) of sleeping time relative to control” value [2] is reported as 37%.
Molecule O=C1C2CCCCC2C(=O)N1CC(=O)N1c2ccccc2N(Cc2ccccc2)C(=O)[C@H]2CCC[C@H]21 (stereo partly drawn) [compound 175] has an IC50 (human GnRH receptor) of 1 µM.
N#Cc1ccc(CN2C(=O)[C@H]3CCC[C@H]3N(C(=O)CN3C(=O)c4ccccc4C3=O)c3ccccc32)cc1 (relative stereo) [compound 210] gave an IC50 (human GnRH receptor) of 0.4 µM.
